Source: PubChem BioAssay AID2060615 (Molecular Pharmacology Branch, DTP, NCI, 2025)

Tested on: 496974-208-R-J2-PDC complex spheroids, growth % test/control
Assay: Anticancer human tumor 496974-208-R-J2-PDC patient-derived pancreatic carcinoma cell line growth inhibition [CLK]
Conditions: for IC50: curve of first compound; for viability, T/C: stronger effect = lower value; active means viability on the fitted dose curve at most 10% of control; inactive means the rest
How it was run: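 Patient-derived tumor cells grown as complex spheroids with HUVEC endothelial cells and mesenchymal stem cells, treated with drug combinations. Concentrations descend in half-log steps from near clinical Cmax, or from 10 microM if Cmax unknown.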

[1] = second compound 0.0316 µM, first compound 0.0316 µM
[2] = second compound 0.0316 µM, first compound 0.1 µM
[3] = second compound 0.0316 µM, first compound 0.316 µM
[4] = second compound 0.0316 µM, first compound 1 µM
[5] = second compound 0.0316 µM, first compound 3.16 µM
[6] = second compound 0.0316 µM, first compound 10 µM
[7] = second compound 0.1 µM, first compound 0.0316 µM
[8] = second compound 0.1 µM, first compound 0.1 µM
[9] = second compound 0.1 µM, first compound 0.316 µM
[10] = second compound 0.1 µM, first compound 1 µM
[11] = second compound 0.1 µM, first compound 3.16 µM
[12] = second compound 0.1 µM, first compound 10 µM
[13] = second compound 0.316 µM, first compound 0.0316 µM
[14] = second compound 0.316 µM, first compound 0.1 µM
[15] = second compound 0.316 µM, first compound 0.316 µM
[16] = second compound 0.316 µM, first compound 1 µM
[17] = second compound 0.316 µM, first compound 3.16 µM
[18] = second compound 0.316 µM, first compound 10 µM
[19] = second compound 1 µM, first compound 0.0316 µM
[20] = second compound 1 µM, first compound 0.1 µM
[21] = second compound 1 µM, first compound 0.316 µM
[22] = second compound 1 µM, first compound 1 µM
[23] = second compound 1 µM, first compound 3.16 µM
[24] = second compound 1 µM, first compound 10 µM
[25] = second compound 3.16 µM, first compound 0.0316 µM
[26] = second compound 3.16 µM, first compound 0.1 µM
[27] = second compound 3.16 µM, first compound 0.316 µM
[28] = second compound 3.16 µM, first compound 1 µM
[29] = second compound 3.16 µM, first compound 3.16 µM
[30] = second compound 3.16 µM, first compound 10 µM
[31] = second compound 10 µM, first compound 0.0316 µM
[32] = second compound 10 µM, first compound 0.1 µM
[33] = second compound 10 µM, first compound 0.316 µM
[34] = second compound 10 µM, first compound 1 µM
[35] = second compound 10 µM, first compound 3.16 µM
[36] = second compound 10 µM, first compound 10 µM
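Further: spheroids exposed to the drugs for 7 days before readout.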
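Wherever viability, T/C is given: 100% = DMSO vehicle control wells.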

CC(=O)O[C@H]1C(=O)[C@@]2(C)[C@H]([C@H](OC(=O)c3ccccc3)[C@]3(O)C[C@H](OC(=O)[C@H](O)[C@@H](NC(=O)c4ccccc4)c4ccccc4)C(C)=C1C3(C)C)[C@]1(OC(C)=O)CO[C@@H]1C[C@@H]2O + CN1CCN(c2cc(C(=O)Nc3cc4cc(-c5cnn(C)c5)ccc4cn3)ccn2)CC1
active: viability, T/C [13] 5.33% | viability, T/C [14] 4.57% | viability, T/C [15] 5.74% | viability, T/C [16] 4.55% | viability, T/C [17] 5.22% | viability, T/C [18] 4.68% | viability, T/C [19] 0.41% | viability, T/C [20] 0.53% | viability, T/C [21] 0.5% | viability, T/C [22] 0.41% | viability, T/C [23] 0.36% | viability, T/C [24] 0.37% | viability, T/C [25] 0.58% | viability, T/C [26] 0.77% | viability, T/C [27] 2.07% | viability, T/C [28] 0.54% | viability, T/C [29] 0.58% | viability, T/C [30] 0.34% | viability, T/C [31] 0.23% | viability, T/C [32] 0.29% | viability, T/C [33] 0.24% | viability, T/C [34] 0.25% | viability, T/C [35] 2.61% | viability, T/C [36] 0.28%
< 31.6 nM: IC50 (second compound 0.0316 µM) | IC50 (second compound 0.1 µM) | IC50 (second compound 0.316 µM) | IC50 (second compound 1 µM) | IC50 (second compound 3.16 µM) | IC50 (second compound 10 µM)
inactive: viability, T/C [1] 35.9% | viability, T/C [2] 29.4% | viability, T/C [3] 33.5% | viability, T/C [4] 29.2% | viability, T/C [5] 31.5% | viability, T/C [6] 27.9% | viability, T/C [7] 29.4% | viability, T/C [8] 25.9% | viability, T/C [9] 27.7% | viability, T/C [10] 29.5% | viability, T/C [11] 24.8% | viability, T/C [12] 23.7%

CCc1c2c(nc3ccc(O)cc13)-c1cc3c(c(=O)n1C2)COC(=O)[C@]3(O)CC + CN1CCN(c2cc(C(=O)Nc3cc4cc(-c5cnn(C)c5)ccc4cn3)ccn2)CC1
7.79 nM: IC50 (second compound 0.0316 µM)
active: viability, T/C [3] 6.46% | viability, T/C [4] 1.65% | viability, T/C [9] 3.35% | viability, T/C [10] 0.91% | viability, T/C (second compound 0.316 µM, first compound 0.00316 µM) 6.81% | viability, T/C (second compound 0.316 µM, first compound 0.01 µM) 5.74% | viability, T/C [13] 3.64% | viability, T/C [14] 2% | viability, T/C [15] 0.48% | viability, T/C [16] 1.92% | viability, T/C (second compound 1 µM, first compound 0.00316 µM) 0.35% | viability, T/C (second compound 1 µM, first compound 0.01 µM) 0.69% | viability, T/C [19] 3.07% | viability, T/C [20] 0.44% | viability, T/C [21] 0.26% | viability, T/C [22] 1.23% | viability, T/C (second compound 3.16 µM, first compound 0.00316 µM) 0.46% | viability, T/C (second compound 3.16 µM, first compound 0.01 µM) 0.62% | viability, T/C [25] 1.9% | viability, T/C [26] 0.34% | viability, T/C [27] 0.73% | viability, T/C [28] 0.29% | viability, T/C (second compound 10 µM, first compound 0.00316 µM) 0.14% | viability, T/C (second compound 10 µM, first compound 0.01 µM) 0.25% | viability, T/C [31] 1.21% | viability, T/C [32] 0.21% | viability, T/C [33] 0.65% | viability, T/C [34] 3.41%
inactive: viability, T/C (second compound 0.0316 µM, first compound 0.00316 µM) 62.2% | viability, T/C (second compound 0.0316 µM, first compound 0.01 µM) 47.5% | viability, T/C [1] 26.7% | viability, T/C [2] 14.5% | viability, T/C (second compound 0.1 µM, first compound 0.00316 µM) 49.3% | viability, T/C (second compound 0.1 µM, first compound 0.01 µM) 38.7% | viability, T/C [7] 23.3% | viability, T/C [8] 10.7%
< 3.16 nM: IC50 (second compound 0.1 µM) | IC50 (second compound 0.316 µM) | IC50 (second compound 1 µM) | IC50 (second compound 3.16 µM) | IC50 (second compound 10 µM)

COc1cccc2c1C(=O)c1c(O)c3c(c(O)c1C2=O)CC(O)(C(=O)CO)CC3OC1CC(N)C(O)C(C)O1 (stereo unspecified) + CN1CCN(c2cc(C(=O)Nc3cc4cc(-c5cnn(C)c5)ccc4cn3)ccn2)CC1
active: viability, T/C [4] 3.22% | viability, T/C [5] 0.57% | viability, T/C [6] 0.47% | viability, T/C [10] 2.07% | viability, T/C [11] 0.59% | viability, T/C [12] 4.88% | viability, T/C [13] 7.3% | viability, T/C [14] 3.63% | viability, T/C [15] 1.93% | viability, T/C [16] 0.81% | viability, T/C [17] 0.45% | viability, T/C [18] 3.13% | viability, T/C [19] 0.57% | viability, T/C [20] 1.13% | viability, T/C [21] 0.75% | viability, T/C [22] 0.66% | viability, T/C [23] 0.36% | viability, T/C [24] 4.38% | viability, T/C [25] 0.52% | viability, T/C [26] 0.84% | viability, T/C [27] 0.57% | viability, T/C [28] 0.48% | viability, T/C [29] 1.77% | viability, T/C [30] 4.51% | viability, T/C [31] 0.22% | viability, T/C [32] 1.44% | viability, T/C [33] 0.2% | viability, T/C [34] 0.2% | viability, T/C [35] 0.21% | viability, T/C [36] 5.39%
120 nM: IC50 (second compound 0.0316 µM)
inactive: viability, T/C [1] 68.7% | viability, T/C [2] 51.4% | viability, T/C [3] 30.8% | viability, T/C [7] 59.9% | viability, T/C [8] 46.6% | viability, T/C [9] 20.3%
78.5 nM: IC50 (second compound 0.1 µM)
< 31.6 nM: IC50 (second compound 0.316 µM) | IC50 (second compound 1 µM) | IC50 (second compound 3.16 µM) | IC50 (second compound 10 µM)
